Measurements published in patent US10278957B2, “Opioid agonist peptides and uses thereof” (Protagonist Therapeutics, Inc., priority 2017, dated 2019).
Square brackets hold non-standard residues; d marks the D form. Peptide text beside a SMILES is read from it. Dmt = Cc1cc(O)cc(C)c1C[C@H](N)C(=O)O; hPhe = N[C@@H](CCc1ccccc1)C(=O)O; dTic = O=C(O)[C@H]1Cc2ccccc2CN1; β3hF = N[C@H](CC(=O)O)Cc1ccccc1; Sar = CNCC(=O)O

Experiments:
μ-opioid receptor (MOR) = target: T1, μ-opioid receptor (MOR) (Homo sapiens, UniProt P35372); experiment: MOR agonist cAMP assay (HitHunter cAMP, forskolin-stimulated); format: cell-based
T1 construct: host or cells: cAMP Hunter CHO-K1 OPRM1 Gαi cell line
Protocol: (§1) The HitHunter® cAMP chemiluminescent assay kit (DiscoveRx, Cat# 90-0075 SM25) was used to detect cAMP production in cAMP Hunter™ Gαi cell lines over expressing either Human-ORPM1 (Discoverx, Catalog# 95-0107C2) or Human-ORPD1 (DiscoveRx, Catalog# 95-0108C2). Opioid agonist binding to the Gαi receptors inhibits the intracellular cAMP accumulation induced by forskolin, which activates adenylate cyclase and increases intracellular levels of cAMP.
(§2) Cells were cultured in media consisting of Ham's F-12 Nutrient Mix (Life Technologies, Catalog#31765035), 10% FBS (Life Technologies, Catalog# 16140-071), 4 mM GlutaMAX (Life Technologies, Catalog#35050-061), […] (Life Technologies), 100 ug/ml of Penn-Strep (Life Technologies) and 0.5 mg/ml Geneticin (Life Technologies, Catalog# 10131-027). The cultures were maintained at 37° C. under 5% CO2.
(§3) In preparation for cAMP assay, the cells were seeded at a density of 300,000 cells/ml in 100 ul of media/well in 96-well microplate. Wells that were designated for cAMP standards were left empty.
(§4) Opioid agonist serial dilutions were prepared in separate dilution plate (11-point series of 3× (3-fold) dilution) in Cell Assay buffer, including 3× forskolin for Gαi target. For Hunter CHO-K1 OPRM1 or CHO-K1 OPRD1 Gαi Cell Lines, the final forskolin concentration was 20 uM.
(§5) 15 ul of each 3× opioid agonist serial dilution was added in the presence of forskolin in duplicate to the designated wells. The final concentration of each dilution was at 3× of the final screening concentration. The assay plate was incubated for 30 min, at 37° C. under 5% CO2.
(§6) Cellular cAMP concentrations were measured using the HitHunter cAMP Assay kit following the manufacturer's protocol. HitHunter cAMP assay is a gain-of-signal competitive immunoassay based on Enzyme Fragment Complementation (EFC) technology. The kit uses β-galactosidase (β-gal) enzyme split into Enzyme Donor (ED) and Enzyme Acceptor (EA). The cellular cAMP and ED-labelled cAMP compete for anti-cAMP antibody. […] When cellular cAMP level is high, it competes for the anti-cAMP antibody, thereby releasing ED-cAMP to complement with EA to produce a luminescent signal. The amount of signal is directly proportional to the amount of cAMP in cells and can be quantified using cAMP standards. The assay plates were read using a PerkinElmer Envision instrument to detect the chemiluminescence signal in each well (luminescence reader at 0.1 to 1 second/well). Data analysis was performed using Graphpad Prism 7.EC50 was calculated by nonlinear regression, using the four-parameter hill equation.

δ-opioid receptor (DOR) = target: T2, δ-opioid receptor (DOR) (Homo sapiens, UniProt P41143); experiment: DOR agonist cAMP assay (HitHunter cAMP, forskolin-stimulated); format: cell-based
T2 construct: host or cells: cAMP Hunter CHO-K1 OPRD1 Gαi cell line
Protocol: as §1, §2, §3, §4, §5, §6

T1 sequence (P35372 whole entry): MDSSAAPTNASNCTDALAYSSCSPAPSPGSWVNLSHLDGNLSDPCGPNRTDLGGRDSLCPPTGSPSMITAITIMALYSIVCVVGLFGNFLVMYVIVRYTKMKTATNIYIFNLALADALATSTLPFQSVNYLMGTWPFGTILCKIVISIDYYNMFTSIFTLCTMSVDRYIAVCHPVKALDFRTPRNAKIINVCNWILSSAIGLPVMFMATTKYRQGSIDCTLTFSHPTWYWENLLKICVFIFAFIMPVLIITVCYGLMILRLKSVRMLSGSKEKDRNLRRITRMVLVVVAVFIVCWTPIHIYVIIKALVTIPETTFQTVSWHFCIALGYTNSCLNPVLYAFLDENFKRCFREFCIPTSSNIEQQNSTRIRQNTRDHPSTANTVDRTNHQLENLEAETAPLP
T2 sequence (P41143 whole entry): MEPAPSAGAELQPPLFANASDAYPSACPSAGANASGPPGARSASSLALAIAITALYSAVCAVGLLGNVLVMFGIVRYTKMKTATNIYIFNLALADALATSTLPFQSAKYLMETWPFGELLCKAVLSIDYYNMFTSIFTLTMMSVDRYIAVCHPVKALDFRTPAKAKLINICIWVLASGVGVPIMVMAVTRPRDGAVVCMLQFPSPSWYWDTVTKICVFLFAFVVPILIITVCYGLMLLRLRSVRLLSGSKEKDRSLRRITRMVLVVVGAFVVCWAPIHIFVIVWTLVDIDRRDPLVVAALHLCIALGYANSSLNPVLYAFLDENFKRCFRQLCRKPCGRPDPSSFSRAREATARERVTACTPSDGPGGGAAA

Cc1cc(O)cc(C)c1C[C@H](N)C(=O)N[C@H](CC(=O)O)C(=O)NCC(=O)N[C@H](CC(=O)N(C)[C@@H](CC1CCCCC1)C(=O)O)Cc1ccccc1 [compound 175]
EC50 (μ-opioid receptor (MOR)): < 1 nM
EC50 (δ-opioid receptor (DOR)): < 1 nM

Cc1cc(C(N)=O)cc(C)c1C[C@H](N)C(=O)NC(C)(C)C(=O)NCC(=O)N[C@H](CC(=O)N(C)CC(N)=O)Cc1ccccc1 [compound 75]
EC50 (μ-opioid receptor (MOR)): < 1 nM
EC50 (δ-opioid receptor (DOR)): 10 to 50 nM

Cc1cc(O)cc(C)c1C[C@H](N)C(=O)N[C@H](C)C(=O)NCC(=O)N[C@H](CC(=O)N(C)[C@@H](CC1CCCCC1)C(=O)O)Cc1ccccc1 [compound 156]
EC50 (μ-opioid receptor (MOR)): < 1 nM
EC50 (δ-opioid receptor (DOR)): 1 to 10 nM

Cc1cc(C(N)=O)cc(C)c1C[C@H](N)C(=O)N[C@@H](C)C(=O)NCC(=O)N[C@H](CC(=O)N(C)CC(=O)O)Cc1ccccc1 [compound 80]
EC50 (μ-opioid receptor (MOR)): 1 to 10 nM
EC50 (δ-opioid receptor (DOR)): 50 to 200 nM

CCCC[C@@H](C(=O)O)N(C)C(=O)C[C@H](Cc1ccccc1)NC(=O)CNC(=O)[C@@H](CC(=O)O)NC(=O)[C@@H](N)Cc1c(C)cc(O)cc1C [compound 178]
EC50 (μ-opioid receptor (MOR)): < 1 nM
EC50 (δ-opioid receptor (DOR)): < 1 nM

Cc1cc(O)cc(C)c1C[C@H](N)C(=O)N[C@H](C)C(=O)NCC(=O)N[C@H](CC(=O)N[C@@H](Cc1ccc2ccccc2c1)C(N)=O)Cc1ccccc1 [compound 114]
EC50 (μ-opioid receptor (MOR)): 1 to 10 nM
EC50 (δ-opioid receptor (DOR)): 1 to 10 nM

CCCC[C@@H](C(=O)O)N(C)C(=O)C[C@H](Cc1ccc(O)cc1)NC(=O)CNC(=O)[C@@H](C)NC(=O)[C@@H](N)Cc1c(C)cc(C(N)=O)cc1C [compound 168]
EC50 (μ-opioid receptor (MOR)): 1 to 10 nM
EC50 (δ-opioid receptor (DOR)): < 1 nM

CCC[C@@H](C(=O)O)N(C)C(=O)C[C@H](Cc1ccccc1)NC(=O)CNC(=O)[C@@H](CC(=O)O)NC(=O)[C@@H](N)Cc1c(C)cc(O)cc1C [compound 174]
EC50 (μ-opioid receptor (MOR)): < 1 nM
EC50 (δ-opioid receptor (DOR)): < 1 nM

Cc1cc(O)cc(C)c1C[C@H](N)C(=O)N[C@H](C)C(=O)N[C@@H](CCc1ccccc1)C(=O)N(C)CC(N)=O [compound 46] (H-[Dmt][dA][hPhe][Sar]-NH2)
EC50 (μ-opioid receptor (MOR)): < 1 nM
EC50 (δ-opioid receptor (DOR)): < 1 nM

CCCC[C@@H](C(=O)O)N(C)C(=O)C[C@H](Cc1ccc(O)cc1)NC(=O)CNC(=O)[C@@H](C)NC(=O)[C@@H](N)Cc1c(C)cc(O)cc1C [compound 152]
EC50 (μ-opioid receptor (MOR)): < 1 nM
EC50 (δ-opioid receptor (DOR)): < 1 nM

Cc1cc(O)cc(C)c1C[C@H](N)C(=O)N[C@H](C)C(=O)NCC(=O)N[C@H](CC(=O)N(C)[C@@H](Cc1ccccc1)C(=O)O)Cc1ccccc1 [compound 158]
EC50 (μ-opioid receptor (MOR)): < 1 nM
EC50 (δ-opioid receptor (DOR)): < 1 nM

CCCCCCCCCCCCCCCCN(CC(N)=O)C(=O)C[C@H](Cc1ccccc1)NC(=O)CNC(=O)[C@@H](C)NC(=O)[C@@H](N)Cc1c(C)cc(O)cc1C [compound 125]
EC50 (μ-opioid receptor (MOR)): 1 to 10 nM
EC50 (δ-opioid receptor (DOR)): 1 to 10 nM

Cc1cc(O)cc(C)c1C[C@H](N)C(=O)N1Cc2ccccc2C[C@@H]1C(=O)N[C@@H](Cc1ccccc1)C(=O)N(C)CC(N)=O [compound 44] (H-[Dmt][dTic]F[Sar]-NH2)
EC50 (μ-opioid receptor (MOR)): < 1 nM
EC50 (δ-opioid receptor (DOR)): 1 to 10 nM

CCCC[C@@H](C(=O)O)N(C)C(=O)C[C@H](Cc1c[nH]c2ccccc12)NC(=O)CNC(=O)[C@@H](C)NC(=O)[C@@H](N)Cc1c(C)cc(O)cc1C [compound 153]
EC50 (μ-opioid receptor (MOR)): 1 to 10 nM
EC50 (δ-opioid receptor (DOR)): < 1 nM

CCCC[C@@H](C(=O)O)N(C)C(=O)C[C@H](Cc1ccc(F)cc1)NC(=O)CNC(=O)[C@@H](C)NC(=O)[C@@H](N)Cc1c(C)cc(O)cc1C [compound 145]
EC50 (μ-opioid receptor (MOR)): < 1 nM
EC50 (δ-opioid receptor (DOR)): < 1 nM

Cc1cc(O)cc(C)c1C[C@H](N)C(=O)N1Cc2ccccc2C[C@@H]1C(=O)NCC(=O)N[C@@H](Cc1ccccc1)C(=O)N(C)CC(N)=O [compound 45] (H-[Dmt][dTic]GF[Sar]-NH2)
EC50 (μ-opioid receptor (MOR)): < 1 nM
EC50 (δ-opioid receptor (DOR)): < 1 nM

CCC[C@@H](C(N)=O)N(C)C(=O)C[C@H](Cc1ccccc1)NC(=O)CNC(=O)[C@@H](C)NC(=O)[C@@H](N)Cc1c(C)cc(O)cc1C [compound 184]
EC50 (μ-opioid receptor (MOR)): < 1 nM
EC50 (δ-opioid receptor (DOR)): < 1 nM

Cc1cc(O)cc(C)c1C[C@H](N)C(=O)N[C@H](CCCNC(=N)N)C(=O)N[C@@H](CCc1ccccc1)C(=O)N(C)CCC(=O)O [compound 12]
EC50 (μ-opioid receptor (MOR)): < 1 nM
EC50 (δ-opioid receptor (DOR)): < 1 nM

CCCC[C@@H](C(=O)O)N(C)C(=O)C[C@H](Cc1cccc(Cl)c1)NC(=O)CNC(=O)[C@@H](C)NC(=O)[C@@H](N)Cc1c(C)cc(O)cc1C [compound 151]
EC50 (μ-opioid receptor (MOR)): < 1 nM
EC50 (δ-opioid receptor (DOR)): < 1 nM

Cc1cc(O)cc(C)c1C[C@H](N)C(=O)N[C@H](C)C(=O)NCC(=O)N[C@H](CC(=O)N(CC(N)=O)CC(F)(F)F)Cc1ccccc1 [compound 122]
EC50 (μ-opioid receptor (MOR)): < 1 nM
EC50 (δ-opioid receptor (DOR)): < 1 nM

CCC[C@@H](C(=O)O)N(C)C(=O)C[C@H](Cc1ccccc1)NC(=O)CNC(=O)[C@@H](C)NC(=O)[C@@H](N)Cc1c(C)cc(O)cc1C [compound 162]
EC50 (μ-opioid receptor (MOR)): < 1 nM
EC50 (δ-opioid receptor (DOR)): < 1 nM

CC[C@H](C)[C@H](NC(=O)[C@@H](C)NC(=O)[C@@H](N)Cc1c(C)cc(O)cc1C)C(=O)N[C@H](CC(=O)N(C)CC(N)=O)Cc1ccccc1 [compound 68] (H-[Dmt][dA]I[β3hF][Sar]-NH2)
EC50 (μ-opioid receptor (MOR)): < 1 nM
EC50 (δ-opioid receptor (DOR)): 10 to 50 nM

Cc1cc(O)cc(C)c1C[C@H](N)C(=O)N1Cc2ccccc2C[C@H]1C(=O)NCC(=O)N[C@H](CC(=O)N(C)CC(N)=O)Cc1ccccc1 [compound 104]
EC50 (μ-opioid receptor (MOR)): 50 to 200 nM
EC50 (δ-opioid receptor (DOR)): 50 to 200 nM

CCCC[C@@H](C(=O)O)N(C)C(=O)C[C@H](Cc1cccc(C)c1)NC(=O)CNC(=O)[C@@H](C)NC(=O)[C@@H](N)Cc1c(C)cc(O)cc1C [compound 141]
EC50 (μ-opioid receptor (MOR)): < 1 nM
EC50 (δ-opioid receptor (DOR)): < 1 nM

Cc1cc(O)cc(C)c1C[C@H](N)C(=O)N[C@H](CC(=O)O)C(=O)NCC(=O)N[C@H](CC(=O)N(C)[C@H](C(=O)O)c1ccccc1)Cc1ccccc1 [compound 176]
EC50 (μ-opioid receptor (MOR)): < 1 nM
EC50 (δ-opioid receptor (DOR)): < 1 nM

CCCC[C@@H](C(=O)O)N(C)C(=O)C[C@H](Cc1ccccc1Br)NC(=O)CNC(=O)[C@@H](C)NC(=O)[C@@H](N)Cc1c(C)cc(O)cc1C [compound 146]
EC50 (μ-opioid receptor (MOR)): < 1 nM
EC50 (δ-opioid receptor (DOR)): < 1 nM

CCCC[C@@H](C(=O)O)N(C)C(=O)C[C@H](Cc1ccc(I)cc1)NC(=O)CNC(=O)[C@@H](C)NC(=O)[C@@H](N)Cc1c(C)cc(O)cc1C [compound 150]
EC50 (μ-opioid receptor (MOR)): < 1 nM
EC50 (δ-opioid receptor (DOR)): < 1 nM

Cc1cc(O)cc(C)c1C[C@H](N)C(=O)N[C@H](CCCNC(=N)N)C(=O)N[C@@H](Cc1ccccc1)C(=O)N(C)CC(N)=O [compound 9] (H-[Dmt][dR]F[Sar]-NH2)
EC50 (μ-opioid receptor (MOR)): < 1 nM
EC50 (δ-opioid receptor (DOR)): 1 to 10 nM

Cc1cc(O)cc(C)c1C[C@H](N)C(=O)N[C@H](C)C(=O)NCC(=O)N[C@H](CC(=O)N(C)[C@@H](Cc1ccc(O)cc1)C(=O)O)Cc1ccccc1 [compound 160]
EC50 (μ-opioid receptor (MOR)): < 1 nM
EC50 (δ-opioid receptor (DOR)): < 1 nM

CCCC[C@@H](C(=O)O)N(C)C(=O)C[C@H](Cc1ccc(C)cc1)NC(=O)CNC(=O)[C@@H](C)NC(=O)[C@@H](N)Cc1c(C)cc(O)cc1C [compound 142]
EC50 (μ-opioid receptor (MOR)): 1 to 10 nM
EC50 (δ-opioid receptor (DOR)): < 1 nM

Cc1cc(O)cc(C)c1C[C@H](N)C(=O)N[C@H](CC(=O)O)C(=O)NCC(=O)N[C@H](CC(=O)N(C)[C@@H](C)C(=O)O)Cc1ccccc1 [compound 170]
EC50 (μ-opioid receptor (MOR)): < 1 nM
EC50 (δ-opioid receptor (DOR)): < 1 nM

Cc1cc(C(N)=O)cc(C)c1C[C@H](N)C(=O)N[C@H](C)C(=O)NCC(=O)N[C@H](CC(=O)N(C)[C@@H](CC1CCCCC1)C(=O)O)Cc1ccccc1 [compound 98]
EC50 (μ-opioid receptor (MOR)): 1 to 10 nM
EC50 (δ-opioid receptor (DOR)): 1 to 10 nM

CC[C@H](C)[C@@H](C(=O)O)N(C)C(=O)C[C@H](Cc1ccccc1)NC(=O)CNC(=O)[C@@H](C)NC(=O)[C@@H](N)Cc1c(C)cc(C(N)=O)cc1C [compound 95]
EC50 (μ-opioid receptor (MOR)): < 1 nM
EC50 (δ-opioid receptor (DOR)): 1 to 10 nM
